Test results reported in patent US20150031702A1, “PI3K INHIBITORS FOR TREATING COUGH” (GlaxoSmithkline Intellectual Property (No.2) Limited, priority 2012, published 2015).

System: dissociated dorsal ganglion sensory neurons
Assay: Sensitization assay: capsaicin-induced Calcium Imaging response after sensitizing cocktail
Type: cell-based, mouse
Settings: co-incubation with various doses of compound (0.002-1000 nM); sensitizing cocktail NGF, GDNF, PGE2, 1β; 3rd capsaicin-induced peak, Fura-2 f340/f380; FIG. 1
Excerpt: Capsaicin, the active ingredient in pepper sprays, is an irritant that causes noxious respiratory sensations and reflexes including sneezing and coughing in humans. Capsaicin binds to Transient Receptor Potential Vanilloid 1 (TRPV1), whose expression is enriched in both somatic and visceral nociceptors. Exaggerated response to inhaled capsaicin can be seen in subjects with IPF or with cough hypersensitivity syndrome and can be used as a test. Increased reactivity to capsaicin is generally considered a marker of sensitization of nociceptors. Capsaicin effects in sensory neurons dissected from mouse peripheral ganglia can be used as a model to identify nociceptors and to study the sensitization mechanisms in vitro. Response to capsaicin can be quantified in a relatively large population of dissociated sensory neurons using the method of Calcium Imaging. […]
Each point represents how well the capsaicin-induced peak is reduced by the drug when compared with negative control (1, no sensitizing solution, no GSK-1) and positive control (0, sensitizing solution, no GSK-1). Calculated, it is:
Where C=the average relative f340/f380 value of peak 3 for the sensitization control (sensitizing solution, no GSK-1). X=the individual relative f340/f380 value to be calculated, and N=the average relative f340/f380 value of peak 3 for the negative control (no sensitization solution, no GSK-1).

SMILES: COc1ncc(-c2ccc3ncnc(N4CCOCC4)c3c2)cc1NS(=O)(=O)c1ccc(F)cc1F [GSK-1, 2,4-difluoro-N-{2-(methyloxy)-5-[4-(4-morpholinyl)-6-quinazolinyl]-3-pyridinyl}benzenesulfonamide]
- Effect on enhancement of the Calcium Imaging response to capsaicin by the sensitizing cocktail: dose-dependently abolished
